This note sets out measurements from US20160368919A1, “NOVEL PYRIDINE PYRAZINONES AS BET-FAMILY BROMODOMAIN INHIBITORS” (Pfizer Inc., priority 2015, published 2016).

In one assay the target is T1, BRD4 BD1 (Homo sapiens, UniProt O60885).
T1 construct: His-tagged BRD4 BD1 (44-160); made in house
Kind of assay: BRD4 BD1 Fluorescence Polarization (FP) competition binding assay. As to conditions: BRD4 BD1 40 nM, probe PFI-411FP 2 nM. As to the method:
Compound binding to BRD4 BD1 was assessed with a FP competition binding assay. […] All assay components were diluted in 50 mM HEPES pH 7.4 containing 0.08% bovine serum albumin (assay buffer). To start the assay, 8 μL of BRD4 BD1 was added to each well of a low volume 384-well black flat bottom microtiter plate (Corning 3820) containing 4 μl of various concentrations of test compound (each plate also contained positive and negative control wells to define the upper and lower limits of the assay signal). After addition of BRD4 BD1, the assay plate was incubated at room temperature (RT, 20° C.). After 15 minutes, 4 μL of PFI-411FP was added to each well and the assay plate was placed in the dark at RT. The final assay concentration (FAC) of PFI-411FP was 2 nM, the FAC of BRD4 BD1 was 40 nM, the FAC of test compound ranged from 120 to 0.0012 μM and the FAC of DMSO was 0.4%. After 60 min, polarization values were measured with an Envision 2103 multilabel reader (Perkin Elmer) using a Cy5 dual enhanced mirror and excitation at 620 nm and emission at 688 nm. The percent (%) effect was calculated for each concentration of test compound and was relative to the amount of polarization signal produced by the positive and negative control wells contained within each assay plate. The concentrations and % effect values for test compounds were plotted versus each other with a proprietary curve fitting program using a four-parameter logistic dose response equation and the concentration of compound required for 50% effect (IC50) was determined. The Ki values of competitive inhibitors were calculated using the equation described by Nikolovska-Coleska et al. (Development and optimization of a binding assay for the XIAP BIR3 domain using fluorescence polarization. Analytical Biochemistry (2004) 332: 261-273).

In assay [1] the test system is LPS-induced IL-6 production in human whole blood. Kind of assay: IL-6 human whole blood (HWB) assay, LPS-stimulated, HTRF detection. The format is cell-based. As to conditions: 1 ng/ml LPS, 4 hours. The procedure:
Compound effect on IL-6 production was determined using lipopolysaccharide (LPS)-stimulated human whole blood and an HTRF (Homogeneous Time-Resolved Fluorescence) IL-6 detection kit (Human IL6 HTRF Assay CisBio 62IL6PEC). HWB was collected by venous puncture from healthy donors, transferred to a 50 ml polypropylene tube containing sodium heparin (14.3 units per mL of HWB) and then placed in a 37° C. water bath until use. To start the assay, 80 μL of heparin-treated HWB containing 1 ng/ml of LPS (equivalent to LPS ˜EC80 with regard to stimulation of IL-6 production in HWB under these assay conditions) was added to each well of a 384-well, sterile, endotoxin-free, polypropylene plate (Greiner 781281) containing 160 nL of various concentrations of test compound (each plate also contained positive and negative control wells to define the upper and lower limits of the assay signal). The plate was then placed in a thermoshaker incubator set to 370C (Boekel 270440). The final assay concentration (FAC) of test compound ranged from 60 to 0.0006 μM and the FAC of DMSO was 0.2%. After 4 hours, the assay plate was removed from the incubator and centrifuged at 700×g for 10 minutes. 5 μL of the resulting upper plasma layer was removed from each well and diluted 1:2 with 1×Dulbecco's phosphate buffered saline (DPBS). 5 μL of this diluted plasma was then transferred to a white 384-well low volume assay plate (Greiner 784080) containing 5 μL of combined anti-IL-6-Cryptate and anti-IL-6-XL665 detection antibodies (per manufacturer's protocol). The plate was then sealed with a Top Seal (Perkin Elmer 6005185) and incubated at room temperature (RT, 20° C.). After 16-18 hrs (overnight), the HTRF assay signal was read on an Envision 2103 plate reader using a Lance Delfia Dual/Bias mirror TRF laser excitation and emission was measured at 665 nm and 615 nm respectively. The percent (%) effect was calculated for each concentration of test compound and was relative to the amount of HTRF signal produced by the positive and negative control wells contained within each assay plate. The concentrations and % effect values for test compounds were plotted versus each other with a proprietary curve fitting program using a four-parameter logistic dose response equation and the concentration of compound required for 50% effect (IC50) was determined.
For orientation: TR-FRET usually uses a lanthanide donor and a delayed reading to cut background.

For orientation: IC50 means the concentration that inhibits the measured activity by half. High values mean weaker potency, low ones greater potency.

As to `CCC(=O)N(C)c1ccc2nc(NCCC(=O)O)c(=O)n(C3(c4ccccc4)CCC3)c2n1` [Example 12, N-{6-[methyl(propanol)amino]-3-oxo-4-(1-phenylcyclobutyl)-3,4-dihydropyrido[2,3-b]pyrazin-2-yl}-beta-alanine], the values for the IC50 (on BRD4 BD1; in assay [1]) were 805 nM and 18100 nM, respectively.
In the same order, the values of `CCC(=O)N(C)c1ccc2nc(NCCC(=O)O)c(=O)n(C3C(CC)CCC3CC)c2n1` (stereo not drawn) [Example 13, N-{4-(2,5-diethylcyclopentyl)-6-[methyl(propanoyl)amino]-3-oxo-3,4-dihdropyrido[2,3-b]pyrazin-2-yl}-beta-alanine] are 111 nM and 846 nM.
In the same order, the values of `COC[C@@H](c1ccccc1)n1c(=O)c(NCCC(=O)O)nc2ccc(N(C)C(C)=O)nc21` [Example 14, N-{6-[acetyl(methyl)amino]-4-[(1R)-2-methoxy-1-phenylethyl]-3-oxo-3,4-dihydropyrido[2,3-b]pyrazin-2-yl}-beta-alanine] are 223 nM and 4800 nM.
On the same counts, the results for `CCC[C@H](COC)n1c(=O)c(NCCC(=O)O)nc2ccc(N(C)C(=O)CC)nc21` [Example 17, N-{4-[(2R)-1-methoxypentan-2-yl]-6-[methyl(propanoyl)amino]-3-oxo-3,4-dihydropyrido[2,3-b]pyrazin-2-yl}-beta-alanine] are 268 nM and 2430 nM.
As to `CCC(=O)N(C)c1ccc2nc(NC)c(=O)n(C(COC)COC)c2n1` [Example 20, N-(4-(1,3-dimethoxypropan-2-yl)-2-(methylamino)-3-oxo-3,4-dihydropyrido[2,3-b]pyrazin-6-yl)-N-methylpropionamide], the IC50 on BRD4 BD1 stood at 1070 nM; in assay [1], 1460 nM.
In the same order, the values of `CC[C@@H](c1ccccc1)n1c(=O)c(NC(C)=O)nc2ccc(N(C)C(C)=O)nc21` [Example 21, N-{2-(acetylamino)-3-oxo-4-[(1S)-1-phenylpropyl]-3,4-dihydropyrido[2,3-b]pyrazin-6-yl}-N-methylacetamide] are 207 nM and 743 nM.
In the same order, the values of `CC[C@@H](c1ccccc1)n1c(=O)c(NCCC(=O)O)nc2ccc(N(C)C(=O)N(C)C)nc21` [Example 22, N-{6-[(dimethylcarbamoyl)(methyl)amino]-3-oxo-4-[(1S)-1-phenylpropyl]-3,4-dihydropyrido[2,3-b]pyrazin-2-yl}-beta-alanine] are 913 nM and 22500 nM.
`CCC(=O)N(C)c1ccc2nc(NCCC(=O)O)c(=O)n([C@H](c3ccccn3)C(C)C)c2n1` [Example 23, N-{6-[methyl(propanol)amino]-4-[(1S)-2-methyl-1-(pyridin-2-yl)propyl]-3-oxo-3,4-dihydropyrido[2,3-b]pyrazin-2-yl}-beta-alanine]: the results for the IC50 (on BRD4 BD1; in assay [1]) were 159 nM and 2300 nM, respectively.
In the same order, the values of `CC[C@@H](c1ccccc1)n1c(=O)c(NCCC(=O)NC)nc2ccc(N(C)C(=O)C3CCO3)nc21` (stereo partly drawn) [Example 28, N-methyl-N-(2-{[3-(methylamino)-3-oxopropyl]amino}-3-oxo-4-[(1S)-1-phenylpropyl]-3,4-dihydropyrido[2,3-b]pyrazin-6-yl)oxetane-2-carboxamide] are 149 nM and 366 nM.
In the same order, the values of `CCC(=O)N(C)c1ccc2nc(NCC(=O)NC)c(=O)n([C@@H](CC)c3ccccc3)c2n1` [Example 29, N-methyl-N-(2-{[2-(methylamino)-2-oxoethyl]amino}-3-oxo-4-[(1S)-1-phenylpropyl]-3,4-dihydropyrido[2,3-b]pyrazin-6-yl)propanamide] are 102 nM and 239 nM.
Turning to `CCC(=O)N(C)c1ccc2nc(NCC(=O)NC)c(=O)n([C@H](c3ccccn3)C(C)C)c2n1` [Example 30, N-methyl-N-(2-{[2-(methylamino)-2-oxoethyl]amino}-4-[(1S)-2-methyl-1-(pyridin-2-yl)propyl]-3-oxo-3,4-dihydropyrido[2,3-b]pyrazin-6-yl)propanamide], the figures for the IC50 (at BRD4 BD1; in assay [1]) were 348 nM and 722 nM, respectively.
On the same counts, the results for `CCC(=O)N(C)c1ccc2nc(NCCC(=O)NC)c(=O)n([C@@H](COC)c3ccccc3)c2n1` [Example 31, N^3-{4-[(1R)-2-methoxy-1-phenylethyl]-6-[methyl(propanoyl)amino]-3-oxo-3,4-dihydropyrido[2,3-b]pyrazin-2-yl}-N-methyl-beta-alaninamide] are 110 nM and 164 nM.
In the same order, the values of `CCC(=O)N(C)c1ccc2nc(NCCC(=O)NC)c(=O)n([C@@H](CC)c3ccccc3)c2n1` [Example 32, N-methyl-N^3-{6-[methyl(propanoyl)amino]-3-oxo-4-[(1S)-1-phenylpropyl]-3,4-dihydropyrido[2,3-b]pyrazin-2-yl}-beta-alaninamide] are 64.8 nM and 266 nM.
Take `CCC(=O)N(C)c1ccc2nc(NCCC(=O)NC)c(=O)n([C@@H](CC)c3ccccn3)c2n1` [Example 33, N-methyl-N^3-{6-[methyl(propanoyl)amino]-3-oxo-4-[(1S)-1-(pyridin-2-yl)propyl]-3,4-dihydropyrido[2,3-b]pyrazin-2-yl}-beta-alaninamide]: the IC50 turned out to be 363 nM on BRD4 BD1 and 452 nM in assay [1].
On the same counts, the results for `CCC(=O)N(C)c1ccc2nc(NCCC(=O)NC)c(=O)n([C@H](c3ccccn3)C(C)C)c2n1` [Example 34, N-methyl-N^3-{6-[methyl(propanoyl)amino]-4-[(1S)-2-methyl-1-(pyridin-2-yl)propyl]-3-oxo-3,4-dihydropyrido[2,3-b]pyrazin-2-yl}-beta-alaninamide] are 167 nM and 426 nM.
For `COc1ccccc1[C@H](C)n1c(=O)c(NCCN2CCOCC2)nc2ccc(-c3c(C)noc3C)nc21` [Example 35, 6-(3,5-dimethyl-1,2-oxazol-4-yl)-4-[(1S)-1-(2-methoxyphenyl)ethyl]-2-{[2-(morpholin-4-yl)ethyl]amino}pyrido[2,3-b]pyrazin-3(4H)-one], the IC50 at BRD4 BD1 is 195 nM; in assay [1] it was 746 nM.
Consider `CC[C@@H](c1ccccc1)n1c(=O)c(NCCN2CCOCC2)nc2ccc(-c3c(C)noc3C)nc21` [Example 39, 6-(3,5-dimethyl-1,2-oxazol-4-yl)-2-{[2-(morpholin-4-yl)ethyl]amino}-4-[(1S)-1-phenylpropyl]pyrido[2,3-b]pyrazin-3(4H)-one], for which the IC50 amounted to 123 nM at BRD4 BD1 and 823 nM in assay [1].
As to `Cc1noc(C)c1-c1ccc2nc(NCCN3CCOCC3)c(=O)n([C@@H](C)c3ccccc3)c2n1` [Example 40, 6-(3,5-dimethyl-1,2-oxazol-4-yl)-2-{[2-(morpholin-4-yl)ethyl]amino}-4-[(1S)-1-phenylethyl]pyrido[2,3-b]pyrazin-3(4H)-one], the IC50 at BRD4 BD1 amounted to 225 nM; in assay [1] it was 1390 nM.
In the same order, the values of `Cc1noc(C)c1-c1ccc2nc(NCC(=O)O)c(=O)n([C@@H](C)c3ccccc3)c2n1` [Example 41, N-{6-(3,5-dimethyl-1,2-oxazol-4-yl)-3-oxo-4-[(1S)-1-phenylethyl]-3,4-dihydropyrido[2,3-b]pyrazin-2-yl}glycine] are 585 nM and 35500 nM.
